Experimental data reported in US20090105320A1, “Biodal Compositions Containing 1,2-Benzisothiazolin-3-One And 1,2-Dibromo-2,4-Dicyanobutane” (priority 2006, published 2009).
Where two headings read alike, the source gives them in different places.

Legend:
[1] = Solubilities of biocidal active substances in different solvents at 25° C.; assay type: physicochemical
[2] = Storage stability (appearance of solution) in different solvents at −5° C., +20° C. and +50° C., 14 days' storage; assay type: physicochemical
[3] = cited from earlier work
[4] = in Polyethylene glycol 300, 25° C.
[5] = in Polyethylene glycol 400/glycerol 3:1, 25° C.
[6] = in TEGDME (tetraethylene glycol dimethyl ether), 25° C.
[7] = in Butyl polyglycol, 14 days' storage
[8] = in Diethylene glycol, 14 days' storage
[9] = in Dimethyl sulfoxide, 14 days' storage
[10] = in N-Methylpyrrolidone, 14 days' storage
[11] = in Polyethylene glycol 300, 14 days' storage
[12] = in dimethyl sulfoxide or N-methylpyrrolidone

N#CCCC(Br)(C#N)CBr (stereo not shown) [1,2-Dibromo-2,4-dicyanobutane, 1,2-dibromo-2,4-dicyanobutane]
Solubility [25° C.] ([1]; in 2-Ethylhexanol, 25° C.): insoluble | Solubility [25° C.] ([1]; in Butyl diglycol, 25° C.): 30% | Solubility [25° C.] ([1]; in Butyl polyglycol, 25° C.): 40% | Solubility [25° C.] ([1]; in Diethylene glycol, 25° C.): 20% | Solubility [25° C.] ([1]; in Dimethyl sulfoxide, 25° C.): 45% | Solubility [25° C.] ([1]; in Dipropylene glycol, 25° C.): 10% | Solubility [25° C.] ([1]; in Glycerol, 25° C.): insoluble | Solubility [25° C.] ([1]; in N-Methylpyrrolidone, 25° C.): 40% | Solubility [25° C.] [1, 4]: 35% | Solubility [25° C.] [1, 5]: 20% | Solubility [25° C.] ([1]; in Polyglycol D 21/150, 25° C.): 15% | Solubility [25° C.] ([1]; in Polyglycol M 350, 25° C.): 45% | Solubility [25° C.] [1, 6]: 45% | Storage stability at +20° C. [2, 7]: clear, yellowish | Storage stability at +50° C. [2, 7]: clear, yellowish | Storage stability at −5° C. [2, 7]: clear, colorless | Storage stability at +20° C. [2, 8]: clear, colorless | Storage stability at +50° C. [2, 8]: clear, colorless | Storage stability at −5° C. [2, 8]: clear, colorless | Storage stability at +20° C. [2, 9]: brown solution | Storage stability at +50° C. [2, 9]: black solution | Storage stability at −5° C. [2, 9]: clear, yellowish | Storage stability at +20° C. [2, 10]: brown solution | Storage stability at +50° C. [2, 10]: black solution | Storage stability at −5° C. [2, 10]: clear, yellowish | Storage stability at +20° C. [2, 11]: clear, yellowish | Storage stability at +50° C. [2, 11]: clear, yellowish | Storage stability at −5° C. [2, 11]: clear, colorless | Chemical stability [3, 12]: chemically unstable | Solubility [3, 12]: readily soluble | Solubility ([3]; in solvents such as glycerol or 2-ethylhexanol): sparingly soluble

O=c1[nH]sc2ccccc12 [1,2-Benzisothiazolin-3-one, 1,2-benzisothiazolin-3-one]
Solubility [25° C.] ([1]; in 2-Ethylhexanol, 25° C.): insoluble | Solubility [25° C.] ([1]; in Butyl diglycol, 25° C.): 7% | Solubility [25° C.] ([1]; in Butyl polyglycol, 25° C.): 10% | Solubility [25° C.] ([1]; in Diethylene glycol, 25° C.): 7% | Solubility [25° C.] ([1]; in Dimethyl sulfoxide, 25° C.): 30% | Solubility [25° C.] ([1]; in Dipropylene glycol, 25° C.): 5% | Solubility [25° C.] ([1]; in Glycerol, 25° C.): insoluble | Solubility [25° C.] ([1]; in N-Methylpyrrolidone, 25° C.): 7% | Solubility [25° C.] [1, 4]: 8% | Solubility [25° C.] [1, 5]: 7% | Solubility [25° C.] ([1]; in Polyglycol D 21/150, 25° C.): 4% | Solubility [25° C.] ([1]; in Polyglycol M 350, 25° C.): 9% | Solubility [25° C.] [1, 6]: 8% | Storage stability at +20° C. [2, 7]: clear solution | Storage stability at +50° C. [2, 7]: clear solution | Storage stability at −5° C. [2, 7]: clear solution | Storage stability at +20° C. [2, 8]: clear solution | Storage stability at +50° C. [2, 8]: clear solution | Storage stability at −5° C. [2, 8]: clear solution | Storage stability at +20° C. [2, 9]: clear solution | Storage stability at +50° C. [2, 9]: clear solution | Storage stability at −5° C. [2, 9]: clear solution | Storage stability at +20° C. [2, 10]: clear solution | Storage stability at +50° C. [2, 10]: clear solution | Storage stability at −5° C. [2, 10]: clear solution | Storage stability at +20° C. [2, 11]: clear solution | Storage stability at +50° C. [2, 11]: clear solution | Storage stability at −5° C. [2, 11]: clear solution | Active substance content at which solutions are stable ([3]; propylene glycol/water or diethylene glycol/water mixture, U.S. Pat. No. 4,188,376, higher concentrated solutions liable to precipitation): below 5 % by weight | Solubility in water ([3]; water): sparingly soluble
